# Measured values taken from article PMC11106742, “Computational Design of Cyclic Peptide Inhibitors of a Bacterial Membrane Lipoprotein Peptidase” (ACS Chemical Biology, 2024).
# Numbered stars: 1 amine (or outer) side, 2 acyl side, 3 side chain; on linkers, the order of the positions; unused ones are H or OH. Bridge positions count the residues as written; N and C are the ends. Square brackets hold non-standard residues; d marks the D form. Peptide text beside a SMILES is read from it. * marks the point of attachment. X4 = CCCCCCCCN([C@H](C)C(=O)[*:2])[*:1]; X2 = CCCCC[C@@H](C)N(CC(=O)[*:2])[*:1]; X6 = CCCCC[C@H](C)N(CC(=O)[*:2])[*:1]; X7 = CCOCCOCCOCCN(CC(=O)[*:2])[*:1]; aIle = CC[C@@H](C)[C@H](N)C(=O)O; N(octyl)Gly = CCCCCCCCNCC(=O)O; aThr = C[C@H](O)[C@H](N)C(=O)O; NMeL = CN[C@@H](CC(C)C)C(=O)O; dOrn = NCCC[C@@H](N)C(=O)O; dDab = NCC[C@@H](N)C(=O)O; Heptanoyl = CCCCCCC(=O)*; Octanoyl = CCCCCCCC(=O)*; Orn = NCCC[C@H](N)C(=O)O; Dab = NCC[C@H](N)C(=O)O; Hexanoyl = CCCCCC(=O)*; Pentanoyl = CCCCC(=O)*; Propionyl = CCC(=O)*; Butyryl = CCCC(=O)*; βAla = NCCC(=O)O
# Legend:
# PaLspA [1] = molecular target: T1, PaLspA (Pseudomonas aeruginosa, UniProt Q9HVM5); experiment: biochemical
# T1 construct: made in house
# T1 sequence (Q9HVM5 1-169): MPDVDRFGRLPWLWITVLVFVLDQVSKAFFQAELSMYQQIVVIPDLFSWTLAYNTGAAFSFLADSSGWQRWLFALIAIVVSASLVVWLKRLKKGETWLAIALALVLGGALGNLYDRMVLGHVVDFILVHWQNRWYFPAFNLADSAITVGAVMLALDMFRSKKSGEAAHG
# Description: These analogues were tested for activity against PaLspA using an in vitro fluorescence resonance energy transfer (FRET) activity assay.[21] LspA inhibition was detected by a change in fluorescence upon cleavage of a FRET peptide substrate containing an N-terminal quencher moiety and a C-terminal fluorophore.
# (A) Structures of G2a and G2d. (B) Results of the FRET dose–response assays. PaLspA concentration was 40 nM, FRET substrate concentration was 50 μM, and the concentration of inhibitors globomycin, G2a, and G2d ranged from 0–3,000 nM. (C) SDS-PAGE gels and quantitation of the PaLspA gel-shift dose–response assays. ppICP concentration was 12 μM, DOPG concentration was 600 μM, and Lgt concentration was 1.2 μM. The Lgt-catalyzed reaction was allowed to proceed for 60 min at 37 °C, after which inhibitors (0–1000 nM) were added. The PaLspA reaction was initiated by the addition of 100 nM enzyme. The LspA reaction was allowed to proceed for 30 min at 37 °C before being quenched with SDS-PAGE loading buffer (62.5 mM Tris/HCl pH 6.8, 2.5% (w/v) SDS, 0.002% (w/v) bromophenol blue, 0.5 M β-mercaptoethanol, 10% (v/v) glycerol). Quantitation of the gel-shift assays was performed using Image Lab, and data were plotted using GraphPad Prism.
# Materials: All reagents were obtained from commercial sources and used without additional purification. All aqueous solutions were prepared using ultrapure laboratory grade water (deionized, filtered, and sterilized) obtained from an in-house ELGA water purification system. […]
# Expression and purification of PaLspA, Lgt, EcLspA and ppICP: PaLspA, Lgt and pre-proICP (ppICP) were expressed and purified using previously published protocols (Vogely et al, 2016).[1] EcLspA was expressed and purified as described for PaLspA, with the following modification. The lysis buffer was 50 mM Hepes pH 7.5, 150 mM NaCl, 1 mM TCEP, 10 %(v/v) glycerol. Isolated membranes, containing EcLspA, were solubilized with 1 %(v/v) FC12 for 2 h at […]
# A. baumannii AB5075 = experiment: microbe, parasite or virus in culture; type: cell-based, Acinetobacter baumannii; details: AB5075
# Description: (§1) MIC values were determined in cation-adjusted Mueller-Hinton broth using the broth microdilution method according to CLSI guidelines. Plates were incubated for 16 to 24 h at 37 °C.
# (§2) Six biological replicates were performed across three different 2-fold dilution series, starting at concentration of 100 µg/ml, 80 µg/ml or 64 µg/ml. The lowest concentration of antimicrobial inhibiting growth was taken as the MIC. This was established by visual inspection of the medium after the incubation period with a lack of turbidity of the growth medium indicating no growth.[3] […]
# A. baumannii AB17978 = experiment: microbe, parasite or virus in culture; type: cell-based, Acinetobacter baumannii; details: AB17978
# Description: as §1, §2
# E. coli ATCC25922 = experiment: microbe, parasite or virus in culture; type: cell-based, Escherichia coli; details: ATCC25922
# Description: as §1, §2
# P. aeruginosa 950 = experiment: microbe, parasite or virus in culture; type: cell-based, Pseudomonas aeruginosa; details: 950
# Description: as §1, §2
# E. coli = type: cell-based
# From the text: Initially, a library of six lipid amide analogues was synthesized via cyclization between the side-chain epsilon -NH2 of an N-terminal L-lysine residue and the C-terminus of an L-serine residue.
# Each analogue was acylated with a simple linear lipid, ranging from C3 to C8 in length (Figure S1). To further probe the potential of the amide isostere, five additional analogues were synthesized in which the D- or L-stereoisomer of cationic amino acids diaminobutyric acid (Dab), ornithine (Orn), or Lys were used as the N-terminal cyclization partner. Each analogue was acylated with an octanoyl tail and the subsequent effects of ring size and/or stereochemistry, as well as lipid length, determined by assessing antimicrobial activity against E. coli. Peptides were also screened against S. aureus.
# Unfortunately, each analogue was unable to […]
# PaLspA [2] = molecular target: T1, PaLspA; experiment: Enzyme inhibition assay of rationally designed analogues with PaLspA; type: biochemical; details: peptide incubated with PaLspA
# Description: Additionally, C3 – C5 (peptides S5 – S7) and C7-Gbm(NLys) (peptide S9) amide analogues were submitted for enzyme inhibition assays to determine if these cyclic amide isosteres could still inhibit the target enzyme, LspA. Each peptide was incubated with PaLspA and the observed reduction in enzyme activity reported. […]
# found for peptides S5 and S9 (C3 and C7-Gbm(NLys). […]
# Four linear globomycin analogues were synthesized to determine the necessity of the cyclic core.
# The pentapeptide core of NMeLeu-Ile-Ser-Thr-Gly-OH was synthesized as both the natural allo-version and the cheaper non-allo version in which native residues allo-L-isoleucine and allo-L-threonine were replaced by their cheaper non-allo derivatives. Each linear pentapeptide was synthesized in both its acylated, octyl-derivative and non-acylated form and submitted for analysis of its PaLspA inhibitory activity. No PaLspA inhibition was observed, confirming the importance of globomycin’s cyclic core for antimicrobial activity.
SMILES,MIC (E. coli),further results
CCCCC[C@H](C)N1CC(=O)N(C)[C@@H](CC(C)C)C(=O)N[C@@H]([C@H](C)CC)C(=O)N[C@@H](CO)C(=O)N[C@@H]([C@H](C)O)C(=O)NCCC1=O [G1a] (cyclo([NMeL][aIle]S[aThr][βAla][X6])),–,IC50 (PaLspA [1]): 2940 ± 850 nM
CCCCC[C@@H](C)N1CC(=O)N(C)[C@@H](CC(C)C)C(=O)N[C@@H]([C@H](C)CC)C(=O)N[C@@H](CO)C(=O)N[C@@H]([C@H](C)O)C(=O)NCCC1=O [G1b] (cyclo([NMeL][aIle]S[aThr][βAla][X2])),–,MIC (A. baumannii AB5075): 25 µg/mL; MIC (A. baumannii AB17978): 16 µg/mL; MIC (E. coli ATCC25922): 32 µg/mL; IC50 (PaLspA [1]): 3680 ± 420 nM; MIC (P. aeruginosa 950): 32 µg/mL
CCCCCCCCN1C(=O)CCNC(=O)[C@H]([C@H](C)O)NC(=O)[C@H](CO)NC(=O)[C@H]([C@H](C)CC)NC(=O)[C@H](CC(C)C)N(C)C(=O)[C@H]1C [G2b] (cyclo([NMeL][aIle]S[aThr][βAla][X4])),–,IC50 (PaLspA [1]): 430 ± 50 nM
CCCCCCCCN1CC(=O)N(C)[C@@H](CC(C)C)C(=O)N[C@@H]([C@H](C)CC)C(=O)N[C@@H](CO)C(=O)N[C@@H]([C@H](C)O)C(=O)NCCC1=O [G2c] (cyclo([NMeL][aIle]S[aThr][βAla][N(octyl)Gly])),–,IC50 (PaLspA [1]): 920 ± 70 nM
CCOCCOCCOCCN1CC(=O)N(C)[C@@H](CC(C)C)C(=O)N[C@@H]([C@H](C)CC)C(=O)N[C@@H](CO)C(=O)N[C@@H]([C@H](C)O)C(=O)NCCC1=O [G2e] (cyclo([NMeL][aIle]S[aThr][βAla][X7])),–,IC50 (PaLspA [1]): 6160 ± 840 nM
"CC[C@@H](C)[C@H](NC(=O)[C@H](CC(C)C)NC)C(=O)N[C@@H](CO)C(=O)N[C@H](C(=O)NCC(=O)O)[C@H](C)O [S1, HN-Globomycin] (H-[NMeL][aIle]S[aThr]G-OH)",> 200 µg/mL,–
"CC[C@H](C)[C@H](NC(=O)[C@H](CC(C)C)NC)C(=O)N[C@@H](CO)C(=O)N[C@H](C(=O)NCC(=O)O)[C@@H](C)O [S2, Non-alloHN-Globomycin] (H-[NMeL]ISTG-OH)",> 200 µg/mL,–
"CCCCCCCC(=O)N(C)[C@@H](CC(C)C)C(=O)N[C@H](C(=O)N[C@@H](CO)C(=O)N[C@H](C(=O)NCC(=O)O)[C@H](C)O)[C@H](C)CC [S3, Octanoyl-Globomycin] (Octanoyl-[NMeL][aIle]S[aThr]G-OH)",> 200 µg/mL,–
"CCCCCCCC(=O)N(C)[C@@H](CC(C)C)C(=O)N[C@H](C(=O)N[C@@H](CO)C(=O)N[C@H](C(=O)NCC(=O)O)[C@@H](C)O)[C@@H](C)CC [S4, Non-alloOctanoyl-Globomycin] (Octanoyl-[NMeL]ISTG-OH)",> 200 µg/mL,–
"CCC(=O)N[C@H]1CCCCNC(=O)[C@H](CO)NC(=O)[C@H](CO)NC(=O)[C@H]([C@H](C)CC)NC(=O)[C@H](CC(C)C)N(C)C1=O [S5, C3-Globomycin(N-Lys)] (Propionyl-K[NMeL][aIle]SS; lactam 1-C)",> 200 µg/mL,reduction in PaLspA enzyme activity (in words) (PaLspA [2]): moderate decrease in enzyme activity
"CCCC(=O)N[C@H]1CCCCNC(=O)[C@H](CO)NC(=O)[C@H](CO)NC(=O)[C@H]([C@H](C)CC)NC(=O)[C@H](CC(C)C)N(C)C1=O [S6, C4-Globomycin(N-Lys)] (Butyryl-K[NMeL][aIle]SS; lactam 1-C)",> 200 µg/mL,reduction in PaLspA enzyme activity (in words) (PaLspA [2]): no reduction in activity
"CCCCC(=O)N[C@H]1CCCCNC(=O)[C@H](CO)NC(=O)[C@H](CO)NC(=O)[C@H]([C@H](C)CC)NC(=O)[C@H](CC(C)C)N(C)C1=O [S7, C5-Globomycin(N-Lys)] (Pentanoyl-K[NMeL][aIle]SS; lactam 1-C)",> 200 µg/mL,reduction in PaLspA enzyme activity (in words) (PaLspA [2]): no reduction in activity
"CCCCCC(=O)N[C@H]1CCCCNC(=O)[C@H](CO)NC(=O)[C@H](CO)NC(=O)[C@H]([C@H](C)CC)NC(=O)[C@H](CC(C)C)N(C)C1=O [S8, C6-Globomycin(N-Lys)] (Hexanoyl-K[NMeL][aIle]SS; lactam 1-C)",> 200 µg/mL,–
"CCCCCCC(=O)N[C@H]1CCCCNC(=O)[C@H](CO)NC(=O)[C@H](CO)NC(=O)[C@H]([C@H](C)CC)NC(=O)[C@H](CC(C)C)N(C)C1=O [S9, C7-Globomycin(N-Lys)] (Heptanoyl-K[NMeL][aIle]SS; lactam 1-C)",100 µg/mL,reduction in PaLspA enzyme activity (in words) (PaLspA [2]): moderate decrease in enzyme activity
"CCCCCCCC(=O)N[C@H]1CCCCNC(=O)[C@H](CO)NC(=O)[C@H](CO)NC(=O)[C@H]([C@H](C)CC)NC(=O)[C@H](CC(C)C)N(C)C1=O [S10, C8-Globomycin(N-Lys)] (Octanoyl-K[NMeL][aIle]SS; lactam 1-C)",> 200 µg/mL,–
"CCCCCCCC(=O)N[C@H]1CCCNC(=O)[C@H](CO)NC(=O)[C@H](CO)NC(=O)[C@H]([C@H](C)CC)NC(=O)[C@H](CC(C)C)N(C)C1=O [S11, C8-Globomycin(N-Orn)] (Octanoyl-[Orn][NMeL][aIle]SS; lactam 1-C)",> 200 µg/mL,–
"CCCCCCCC(=O)N[C@H]1CCNC(=O)[C@H](CO)NC(=O)[C@H](CO)NC(=O)[C@H]([C@H](C)CC)NC(=O)[C@H](CC(C)C)N(C)C1=O [S12, C8-Globomycin(N-Dab)] (Octanoyl-[Dab][NMeL][aIle]SS; lactam 1-C)",> 200 µg/mL,–
"CCCCCCCC(=O)N[C@H]1CC=CCNC(=O)[C@H](CO)NC(=O)[C@H](CO)NC(=O)[C@H]([C@H](C)CC)NC(=O)[C@H](CC(C)C)N(C)C1=O [S13, C8-Globomycin(RCM)]",> 200 µg/mL,antimicrobial activity (in words) (E. coli; against Gram-negative bacteria): void of antimicrobial activity
"CCCCCCCC(=O)N[C@@H]1CCCCNC(=O)[C@H](CO)NC(=O)[C@H](CO)NC(=O)[C@H]([C@H](C)CC)NC(=O)[C@H](CC(C)C)N(C)C1=O [S14, C8-Globomycin(N-D-Lys)] (Octanoyl-[dK][NMeL][aIle]SS; lactam 1-C)",> 200 µg/mL,–
"CCCCCCCC(=O)N[C@@H]1CCCNC(=O)[C@H](CO)NC(=O)[C@H](CO)NC(=O)[C@H]([C@H](C)CC)NC(=O)[C@H](CC(C)C)N(C)C1=O [S15, C8-Globomycin(N-D-Orn)] (Octanoyl-[dOrn][NMeL][aIle]SS; lactam 1-C)",> 200 µg/mL,–
"CCCCCCCC(=O)N[C@@H]1CCNC(=O)[C@H](CO)NC(=O)[C@H](CO)NC(=O)[C@H]([C@H](C)CC)NC(=O)[C@H](CC(C)C)N(C)C1=O [S16, C8-Globomycin(N-D-Dab)] (Octanoyl-[dDab][NMeL][aIle]SS; lactam 1-C)",> 200 µg/mL,–
